The text below walks through data of article PMC4519859, “Synthesis and Biological Evaluation of Novel Dehydroabietic Acid Derivatives Conjugated with Acyl-Thiourea Peptide Moiety as Antitumor Agents” (International Journal of Molecular Sciences, 2015).

A value given as a limit tells only on which side of the number the result lay.

What all share (type): cell-based
For one assay, the system named is HeLa. As to the kind of experiment: MTT cytotoxicity assay, HeLa. The following applies: Homo sapiens, 48 h, mean ± SD, three independent experiments. How it is done:
(§1) The in vitro cytotoxic potency of DHAA acyl-thiourea derivatives 8a–8o and 9a–9o were evaluated by 3-(4,5-dimethylthiazol-2-yl)-2,5-diphenyltetrazolium bromide (MTT) assay against HeLa, SK-OV-3 and MGC-803 tumor cell lines, with 5-FU as the positive control.
(§2) General procedure for cytotoxic evaluation in vitro: HeLa, HepG2, SK-OV-3 and MGC-803 cells were seeded into 96-well microculture plates and allowed to adhere for 24 h, respectively. After cells were exposed to compounds at concentrations from 100 to 0.01 μM for 48 h, medium was aspirated and replenished with complete medium. IC50 was evaluated by MTT tetrazolium dye assay. Each experiment was performed three times; Statistical analysis: All statistical analysis was performed with SPSS Version 10 (SPSS, Chicago, IL, USA). Data was analyzed by one-way ANOVA. Mean separations were performed using the least significant difference method. Each experiment was replicated thrice, and all experiments yielded similar results. Measurements from all the replicates were combined, and treatment effects were analyzed.
On the technique in general: Formazan colour is commonly taken as a measure of viable cells.

The test system of another assay is SK-OV-3. The assay is described as follows: MTT cytotoxicity assay, SK-OV-3. The following applies: Homo sapiens, 48 h, mean ± SD, three independent experiments. How it is done:
as §1, §2

A further assay relates to MGC-803. As to the kind of experiment: MTT cytotoxicity assay, MGC-803. Conditions: Homo sapiens, 48 h, mean ± SD, three independent experiments. How it is done: as §1, §2
In the next assay the test system is HL-7702. The assay is described as follows: MTT cytotoxicity assay, HL-7702 normal cells. Conditions: L02, 48 h, normal human cells, mean ± SD, three independent experiments. How it is done:
[The source words this procedure for another cell line and reports this cell line under the same test.] as §1, §2

In general, IC50 refers to the point on the concentration scale where inhibition reaches its midpoint. Lower therefore signals higher potency. Take `O=c1[nH]cc(F)c(=O)[nH]1` [Compound 5-FU, 5-fluorouracil, reference compound]: the IC50 in the assay on HeLa worked out at 36.6 ± 1.55 µM; in the assay on SK-OV-3 it was 30.2 ± 1.13 µM; in the assay on MGC-803 it was 34.9 ± 1.75 µM.

Take `CC(C)c1ccc2c(c1)CCC1[C@](C)(C(=O)NC(=S)N[C@H](C)C(=O)Nc3ccccc3)CCC[C@]21C` (stereo partly drawn) [Compound 8a, (1R,4aS)-7-Isopropyl-1,4a-dimethyl-N-(((R)-1-oxo-1-(phenylamino)propan-2-yl)carbamothioyl)-1,2,3,4,4a,9,10,10a-octahydrophenanthrene-1-carboxamide]: the 50% inhibitory concentration (IC50) was 31.1 ± 2.13 µM with HeLa, 26.5 ± 2.53 µM with SK-OV-3, 28.5 ± 1.79 µM in the assay with MGC-803 and 47.6 ± 2.43 µM in the assay with HL-7702.

With `Cc1ccccc1NC(=O)[C@@H](C)NC(=S)NC(=O)[C@]1(C)CCC[C@]2(C)c3ccc(C(C)C)cc3CCC12` (stereo partly drawn) [Compound 8b, (1R,4aS)-7-Isopropyl-1,4a-dimethyl-N-(((R)-1-oxo-1-(o-tolylamino)propan-2-yl)carbamothioyl)-1,2,3,4,4a,9,10,10a-octahydrophenanthrene-1-carboxamide], the IC50 in the assay with HeLa is 29.2 ± 2.43 µM; with SK-OV-3, 42.8 ± 1.42 µM; with MGC-803 it was 19.2 ± 1.66 µM; in the assay with HL-7702, 52.5 ± 1.25 µM.

Turning to `Cc1ccc(NC(=O)[C@@H](C)NC(=S)NC(=O)[C@]2(C)CCC[C@]3(C)c4ccc(C(C)C)cc4CCC23)cc1` (stereo partly drawn) [Compound 8c, (1R,4aS)-7-Isopropyl-1,4a-dimethyl-N-(((R)-1-oxo-1-(p-tolylamino)propan-2-yl)carbamothioyl)-1,2,3,4,4a,9,10,10a-octahydrophenanthrene-1-carboxamide], the IC50 worked out at 38.7 ± 3.65 µM in the assay with HeLa, 50.9 ± 4.11 µM in the assay with SK-OV-3, 24.9 ± 1.64 µM with MGC-803 and 61.7 ± 3.41 µM in the assay with HL-7702.

For `CC(C)c1ccc2c(c1)CCC1[C@](C)(C(=O)NC(=S)N[C@H](C)C(=O)Nc3ccccc3Cl)CCC[C@]21C` (stereo partly drawn) [Compound 8d, (1R,4aS)-N-(((R)-1-((2-Chlorophenyl)amino)-1-oxopropan-2-yl)carbamothioyl)-7-isopropyl-1,4a-dimethyl-1,2,3,4,4a,9,10,10a-octahydrophenanthrene-1-carboxamide], the IC50 in the assay on HeLa worked out at 19.7 ± 1.23 µM; with SK-OV-3, 48.3 ± 4.21 µM; with MGC-803, 20.6 ± 1.57 µM; with HL-7702, 69.4 ± 4.23 µM.

As to `CC(C)c1ccc2c(c1)CCC1[C@](C)(C(=O)NC(=S)N[C@H](C)C(=O)Nc3ccc(Cl)cc3)CCC[C@]21C` (stereo partly drawn) [Compound 8e, (1R,4aS)-N-(((R)-1-((4-Chlorophenyl)amino)-1-oxopropan-2-yl)carbamothioyl)-7-isopropyl-1,4a-dimethyl-1,2,3,4,4a,9,10,10a-octahydrophenanthrene-1-carboxamide], the IC50 in the assay on HeLa was 36.1 ± 3.31 µM; in the assay with SK-OV-3, 36.1 ± 3.28 µM; in the assay on MGC-803, 21.7 ± 1.69 µM; in the assay with HL-7702 it was 57.7 ± 3.66 µM.

For the compound `COc1ccccc1NC(=O)[C@@H](C)NC(=S)NC(=O)[C@]1(C)CCC[C@]2(C)c3ccc(C(C)C)cc3CCC12` (stereo partly drawn) [Compound 8f, (1R,4aS)-7-Isopropyl-N-(((R)-1-((2-methoxyphenyl)amino)-1-oxopropan-2-yl)carbamothioyl)-1,4a-dimethyl-1,2,3,4,4a,9,10,10a-octahydrophenanthrene-1-carboxamide], the 50% inhibitory concentration (IC50) with HeLa turned out to be 28.1 ± 2.11 µM; in the assay with SK-OV-3 it was 23 ± 3.01 µM; with MGC-803 it was 17.9 ± 1.73 µM; in the assay with HL-7702, 44.7 ± 3.34 µM.

`COc1ccc(NC(=O)[C@@H](C)NC(=S)NC(=O)[C@]2(C)CCC[C@]3(C)c4ccc(C(C)C)cc4CCC23)cc1` (stereo partly drawn) [Compound 8g, (1R,4aS)-7-Isopropyl-N-(((R)-1-((4-methoxyphenyl)amino)-1-oxopropan-2-yl)carbamothioyl)-1,4a-dimethyl-1,2,3,4,4a,9,10,10a-octahydrophenanthrene-1-carboxamide]: the IC50 is 27.4 ± 2.43 µM with HeLa, 26.8 ± 2.47 µM in the assay with SK-OV-3, 18.6 ± 1.72 µM with MGC-803 and 43.6 ± 2.43 µM in the assay on HL-7702.

As to `CC(C)c1ccc2c(c1)CCC1[C@](C)(C(=O)NC(=S)N[C@H](C)C(=O)Nc3ccccc3F)CCC[C@]21C` (stereo partly drawn) [Compound 8h, (1R,4aS)-N-(((R)-1-((2-Fluorophenyl)amino)-1-oxopropan-2-yl)carbamothioyl)-7-isopropyl-1,4a-dimethyl-1,2,3,4,4a,9,10,10a-octahydrophenanthrene-1-carboxamide], the IC50 amounted to 23.3 ± 1.55 µM in the assay on HeLa, 31.8 ± 2.36 µM with SK-OV-3, 26.1 ± 2.37 µM in the assay on MGC-803 and 53.5 ± 2.35 µM in the assay on HL-7702.

For the compound `CC(C)c1ccc2c(c1)CCC1[C@](C)(C(=O)NC(=S)N[C@H](C)C(=O)Nc3ccc(F)cc3)CCC[C@]21C` (stereo partly drawn) [Compound 8i, (1R,4aS)-N-(((R)-1-((4-Fluorophenyl)amino)-1-oxopropan-2-yl)carbamothioyl)-7-isopropyl-1,4a-dimethyl-1,2,3,4,4a,9,10,10a-octahydrophenanthrene-1-carboxamide], the IC50 with HeLa was found to be 30.2 ± 2.55 µM; in the assay on SK-OV-3 it was 32.5 ± 2.64 µM; in the assay on MGC-803, 29.4 ± 2.77 µM; with HL-7702, 54.5 ± 2.34 µM.

For the compound `CC(C)c1ccc2c(c1)CCC1[C@](C)(C(=O)NC(=S)N[C@H](C)C(=O)Nc3ccccc3Br)CCC[C@]21C` (stereo partly drawn) [Compound 8j, (1R,4aS)-N-(((R)-1-((2-Bromophenyl)amino)-1-oxopropan-2-yl)carbamothioyl)-7-isopropyl-1,4a-dimethyl-1,2,3,4,4a,9,10,10a-octahydrophenanthrene-1-carboxamide], the IC50 in the assay with HeLa came out at 22.8 ± 1.55 µM; with SK-OV-3, 39.1 ± 3.56 µM; in the assay with MGC-803, 27.9 ± 3.26 µM; in the assay with HL-7702 it was 59.6 ± 3.54 µM.

As to `CC(C)c1ccc2c(c1)CCC1[C@](C)(C(=O)NC(=S)N[C@H](C)C(=O)Nc3ccc(Br)cc3)CCC[C@]21C` (stereo partly drawn) [Compound 8k, (1R,4aS)-N-(((R)-1-((4-Bromophenyl)amino)-1-oxopropan-2-yl)carbamothioyl)-7-isopropyl-1,4a-dimethyl-1,2,3,4,4a,9,10,10a-octahydrophenanthrene-1-carboxamide], the IC50 is 19 ± 1.46 µM in the assay with HeLa, 40.8 ± 3.57 µM with SK-OV-3, 30 ± 1.24 µM in the assay with MGC-803 and 54.6 ± 3.65 µM with HL-7702.

With `Cc1cc(C)cc(NC(=O)[C@@H](C)NC(=S)NC(=O)[C@]2(C)CCC[C@]3(C)c4ccc(C(C)C)cc4CCC23)c1` (stereo partly drawn) [Compound 8l, (1R,4aS)-N-(((R)-1-((3,5-Dimethylphenyl)amino)-1-oxopropan-2-yl)carbamothioyl)-7-isopropyl-1,4a-dimethyl-1,2,3,4,4a,9,10,10a-octahydrophenanthrene-1-carboxamide], the 50% inhibitory concentration (IC50) with HeLa came out at 18.6 ± 1.24 µM; in the assay with SK-OV-3 it was 33 ± 2.59 µM; in the assay on MGC-803, 13.9 ± 1.32 µM; in the assay on HL-7702, 55.3 ± 2.65 µM.

For `CC(C)c1ccc2c(c1)CCC1[C@](C)(C(=O)NC(=S)N[C@H](C)C(=O)Nc3cccc4ccccc34)CCC[C@]21C` (stereo partly drawn) [Compound 8m, (1R,4aS)-7-Isopropyl-1,4a-dimethyl-N-(((R)-1-(naphthalen-1-ylamino)-1-oxopropan-2-yl)carbamothioyl)-1,2,3,4,4a,9,10,10a-octahydrophenanthrene-1-carboxamide], the concentration for half-maximal inhibition (IC50) worked out at 46.6 ± 4.77 µM in the assay with HeLa, 49.4 ± 4.64 µM with SK-OV-3, 36.5 ± 3.24 µM with MGC-803 and 59.5 ± 4.65 µM in the assay with HL-7702.

As to `CC(C)c1ccc2c(c1)CCC1[C@](C)(C(=O)NC(=S)N[C@H](C)C(=O)Nc3ccccn3)CCC[C@]21C` (stereo partly drawn) [Compound 8n, (1R,4aS)-7-Isopropyl-1,4a-dimethyl-N-(((R)-1-oxo-1-(pyridin-2-ylamino)propan-2-yl)carbamothioyl)-1,2,3,4,4a,9,10,10a-octahydrophenanthrene-1-carboxamide], the IC50 turned out to be 14.3 ± 1.33 µM in the assay with HeLa, 25.2 ± 2.43 µM with SK-OV-3, 19.3 ± 1.32 µM in the assay on MGC-803 and 48.8 ± 2.44 µM in the assay on HL-7702.

Consider `COc1cc(NC(=O)[C@@H](C)NC(=S)NC(=O)[C@]2(C)CCC[C@]3(C)c4ccc(C(C)C)cc4CCC23)cc(OC)c1OC` (stereo partly drawn) [Compound 8o, (1R,4aS)-7-Isopropyl-1,4a-dimethyl-N-(((R)-1-oxo-1-((3,4,5-trimethoxyphenyl)amino)propan-2-yl)carbamothioyl)-1,2,3,4,4a,9,10,10a-octahydrophenanthrene-1-carboxamide], for which the concentration for half-maximal inhibition (IC50) in the assay with HeLa was determined as 18.1 ± 1.23 µM; with SK-OV-3, 29.6 ± 2.67 µM; in the assay with MGC-803, 22.7 ± 1.77 µM; with HL-7702 it was 49.2 ± 2.65 µM.

As for `CC(C)c1ccc2c(c1)CCC1[C@](C)(C(=O)NC(=S)N[C@H](Cc3ccccc3)C(=O)Nc3ccccc3)CCC[C@]21C` (stereo partly drawn) [Compound 9a, (1R,4aS)-7-Isopropyl-1,4a-dimethyl-N-(((R)-1-oxo-3-phenyl-1-(phenylamino)propan-2-yl)carbamothioyl)-1,2,3,4,4a,9,10,10a-octahydrophenanthrene-1-carboxamide], the 50% inhibitory concentration (IC50) in the assay on HeLa turned out to be 25.7 ± 2.23 µM; in the assay on SK-OV-3, 17 ± 1.13 µM; with MGC-803 it was 26.6 ± 3.25 µM; with HL-7702, 37.5 ± 1.44 µM.

As to `Cc1ccccc1NC(=O)[C@@H](Cc1ccccc1)NC(=S)NC(=O)[C@]1(C)CCC[C@]2(C)c3ccc(C(C)C)cc3CCC12` (stereo partly drawn) [Compound 9b, (1R,4aS)-7-Isopropyl-1,4a-dimethyl-N-(((R)-1-oxo-3-phenyl-1-(o-tolylamino)propan-2-yl)carbamothioyl)-1,2,3,4,4a,9,10,10a-octahydrophenanthrene-1-carboxamide], the 50% inhibitory concentration (IC50) came out at 17.7 ± 1.34 µM in the assay with HeLa, 18.5 ± 1.44 µM in the assay with SK-OV-3, 14.1 ± 1.12 µM in the assay on MGC-803 and 38.6 ± 1.65 µM in the assay on HL-7702.

For the compound `CC(C)c1ccc2c(c1)CC[C@H]1[C@](C)(C(=O)O)CCC[C@]21C` [DHA, dehydroabietic acid], the concentration for half-maximal inhibition (IC50) is 30.4 ± 3.45 µM with HeLa, 87.5 ± 4.12 µM with SK-OV-3 and above 100 µM in the assay with MGC-803.
